Measured values: patent publication US20250277012A1 (Protagonist Therapeutics, Inc., priority 2021, published 2025)
Like-named read-outs stand apart in the source and are kept apart here. Starred links: 1 amine or outer side, 2 acyl side, 3 side chain; linkers in the order of their positions; H or OH if unused. Positions of bridges follow the written chain, without caps; N, C: chain ends. Non-standard residues stand in square brackets, D forms with d. Residues, ends and D or L forms follow the SMILES beside them. Groups on a side chain read outwards from the residue. *: point of attachment. X1 = C[N+](C)(CCNC(=O)CCCCCCCCCCCCCCCCC(=O)O)CC(=O)*; C18 diacid = O=C(O)CCCCCCCCCCCCCCCCC(=O)*; Dip = N[C@H](C(=O)O)C(c1ccccc1)c1ccccc1; γGlu = O=C(O)[C@H](CCC(=O)[*:2])N[*:1]; Palmitoyl = CCCCCCCCCCCCCCCC(=O)*; β3hF = N[C@H](CC(=O)O)Cc1ccccc1; Pen = CC(C)(S)[C@H](N)C(=O)O; Isovaleryl = CC(C)CC(=O)*; AEEA = NCCOCCOCC(=O)O; Ahx = NCCCCCC(=O)O

Key:
[1] = biological target: T1, ferroportin (Homo sapiens, UniProt Q9NP59); experiment: FPN activity assay: ferroportin-GFP internalization/degradation in HEK293 cells; format: cell-based; design: expressed in transfected cells; conditions: read-out: FPN IC50
T1 sequence (Q9NP59 1-571): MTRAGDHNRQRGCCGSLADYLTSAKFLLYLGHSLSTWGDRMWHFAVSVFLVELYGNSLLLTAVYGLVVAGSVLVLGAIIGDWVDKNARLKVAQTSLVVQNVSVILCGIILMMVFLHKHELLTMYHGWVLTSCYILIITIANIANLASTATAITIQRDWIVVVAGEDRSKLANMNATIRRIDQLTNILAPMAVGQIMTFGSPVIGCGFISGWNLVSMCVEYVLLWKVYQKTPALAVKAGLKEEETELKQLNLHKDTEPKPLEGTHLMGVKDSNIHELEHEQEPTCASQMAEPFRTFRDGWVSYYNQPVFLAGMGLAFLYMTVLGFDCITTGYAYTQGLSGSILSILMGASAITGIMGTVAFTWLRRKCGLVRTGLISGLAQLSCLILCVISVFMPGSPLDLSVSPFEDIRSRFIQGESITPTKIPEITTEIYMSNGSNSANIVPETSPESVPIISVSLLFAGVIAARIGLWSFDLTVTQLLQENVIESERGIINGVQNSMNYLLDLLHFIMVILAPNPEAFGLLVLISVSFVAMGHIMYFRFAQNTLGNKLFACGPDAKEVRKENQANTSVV
Description: Following internalization, the ferroporin protein is degraded.
A retro inverse peptide is a peptide with a reversed sequence in all D amino acids. An example is that Hy-Glu-Thr-His-NH2 becomes Hy-DHis-DThr-DGlu-NH2. The EC50 of these reference compounds for ferroportin internalization/degradation was determined according to the FPN activity assay described above. These peptides served as control standards.

[2] = biological target: T1, ferroportin; experiment: T47D cell-based ferroportin internalization assay in presence of mouse serum albumin (MSA); design: a human breast carcinoma adherent cell line which endogenously expresses ferroportin; host or cells: T47D
How it was run: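 Peptide potency for inducing ferroportin internalization was measured in T47D cells in the presence of serum albumin. Cells grown in RPMI with fetal bovine serum were seeded in 96-well plates at 80-100 k cells per well in 100 ul and rested overnight. Dilution series of test peptides were preincubated 30 min at room temperature, then added to the cells after the medium was aspirated.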

[3] = Table 6E, ferroportin-GFP internalization/degradation, at least 18 hours incubation
[4] = Table 6E, T47D internalization assay with MSA
[5] = ferroportin-GFP HEK293 cells, at least 18 hours
[6] = T47D cells, 0.5% mouse serum albumin, 1 hr incubation

SMILES: COC(=O)CCC(CCCC(C)C)C(=O)N[C@H](C(=O)N[C@@H](Cc1c[nH]cn1)C(=O)N[C@H](C(=O)N1CCC[C@H]1C(=O)N[C@H]1CSSC[C@@H](C(=O)N(C)[C@@H](CCCCNC(=O)CCCCCNC(=O)C[N+](C)(C)CCNC(=O)CCCCCCCCCCCCCCCCC(=O)O)C(=O)N[C@H](C(=O)N[C@H](CCCCN)C(N)=O)C(c2ccccc2)c2ccccc2)NC1=O)C(c1ccccc1)c1ccccc1)[C@@H](C)O (single isomer, unassigned) [compound 137]
- DC50 [1, 3]: 10 to 100 nM
- IC50 [2, 4]: 10 to 100 nM

SMILES: COC(=O)CCC(CCCC(C)C)C(=O)N[C@H](C(=O)N[C@@H](Cc1c[nH]cn1)C(=O)N[C@H](C(=O)N1CCC[C@H]1C(=O)N[C@H]1CSSC[C@@H](C(=O)N(C)[C@@H](CCCCNC(=O)CCCCCNC(=O)C[N+](C)(C)CCNC(=O)CCCCCCCCCCCCCCCCC(=O)O)C(=O)N[C@H](C(=O)N[C@H](CCCCN)C(N)=O)C(c2ccccc2)c2ccccc2)NC1=O)C(c1ccccc1)c1ccccc1)[C@@H](C)O (single isomer, unassigned) [compound 138]
- DC50 [1, 3]: 10 to 100 nM
- IC50 [2, 4]: 100 to 500 nM

SMILES: CC[C@H](C)[C@@H]1NC(=O)[C@@H](NC(=O)[C@@H]2CCCN2C(=O)[C@H](Cc2ccccc2)NC(=O)[C@H](Cc2c[nH]cn2)NC(=O)[C@@H](NC(=O)[C@H](CCC(=O)O)NC(=O)CC(C)C)[C@@H](C)O)C(C)(C)SSC(C)(C)[C@@H](C(=O)N[C@@H](CCCCN)C(N)=O)NC(=O)CNC(=O)[C@H](CCCCN)NC(=O)[C@H](CO)NC(=O)[C@H](CCCNC(=N)N)NC(=O)[C@@H]2CCCN2C(=O)[C@H](CCC(=O)O)NC(=O)[C@H](Cc2ccccc2)NC(=O)[C@H](CCCCNC(=O)COCCOCCNC(=O)COCCOCCNC(=O)CC[C@H](NC(=O)CCCCCCCCCCCCCCCCC(=O)O)C(=O)O)NC1=O [Compd 18] (Isovaleryl-ETHFP[Pen]IK([AEEA-AEEA-γGlu-C18 diacid])FEPRSKG[Pen]K-NH2; disulfide 6-16)
- DC50 [1, 5]: > 500 nM
- IC50 [2, 6]: > 500 nM

SMILES: CC[C@H](C)[C@H](NC(=O)[C@@H]1CSSC[C@H](NC(=O)[C@@H](NC(=O)[C@H](Cc2c[nH]cn2)NC(=O)[C@@H](NC(=O)[C@H](CCC(=O)O)NC(=O)CC(C)C)[C@@H](C)O)C(c2ccccc2)c2ccccc2)C(=O)N1)C(=O)N[C@@H](CCCCNC(=O)COCCOCCNC(=O)COCCOCCNC(=O)CCCCCNC(=O)CCCCCCCCCCCCCCCCC(=O)O)C(=O)N[C@H](CC(=O)N[C@H](CCCCN)C(N)=O)Cc1ccccc1 [Compd 21] (Isovaleryl-ETH[Dip]CCIK([AEEA-AEEA-Ahx-C18 diacid])[β3hF][dK]-NH2; disulfide 5-6)
- DC50 [1, 5]: 10 to 100 nM
- IC50 [2, 6]: 10 to 100 nM

SMILES: CC(C)CC(=O)N[C@@H](CCC(=O)O)C(=O)N[C@H](C(=O)N[C@@H](Cc1c[nH]cn1)C(=O)N[C@H](C(=O)N1CCC[C@H]1C(=O)N[C@H]1CSSC[C@@H](C(=O)N[C@@H](CCCCNC(=O)COCCOCCNC(=O)COCCOCCNC(=O)CCCCCNC(=O)CCCCCCCCCCCCCCCCC(=O)O)C(=O)N[C@H](CC(=O)N[C@H](CCCCN)C(N)=O)Cc2ccccc2)NC1=O)C(c1ccccc1)c1ccccc1)[C@@H](C)O [Compd 22] (Isovaleryl-ETH[Dip]PCCK([AEEA-AEEA-Ahx-C18 diacid])[β3hF][dK]-NH2; disulfide 6-7)
- DC50 [1, 5]: 10 to 100 nM
- IC50 [2, 6]: 10 to 100 nM

SMILES: CC[C@H](C)[C@@H]1NC(=O)[C@@H](NC(=O)[C@@H]2CCCN2C(=O)[C@@H](NC(=O)[C@H](Cc2c[nH]cn2)NC(=O)[C@@H](NC(=O)[C@H](CCC(=O)O)NC(=O)CC(C)C)[C@@H](C)O)C(c2ccccc2)c2ccccc2)CSSC[C@@H](C(N)=O)NC(=O)C[C@H](Cc2ccccc2)NC(=O)[C@H](CCCCNC(=O)COCCOCCNC(=O)COCCOCCNC(=O)CCCCCNC(=O)CCCCCCCCCCCCCCCCC(=O)O)NC1=O [Compd 23] (Isovaleryl-ETH[Dip]PCIK([AEEA-AEEA-Ahx-C18 diacid])[β3hF]C-NH2; disulfide 6-10)
- DC50 [1, 5]: 10 to 100 nM
- IC50 [2, 6]: 10 to 100 nM

SMILES: CC[C@H](C)[C@@H]1NC(=O)[C@@H](NC(=O)[C@@H]2CCCN2C(=O)[C@@H](NC(=O)[C@H](Cc2c[nH]cn2)NC(=O)[C@@H](NC(=O)[C@H](CCC(=O)O)NC(=O)CC(C)C)[C@@H](C)O)C(c2ccccc2)c2ccccc2)CSSC[C@@H](C(=O)N[C@H](CC(=O)N[C@@H](CCCCNC(=O)COCCOCCNC(=O)COCCOCCNC(=O)CCCCCNC(=O)CCCCCCCCCCCCCCCCC(=O)O)C(=O)N[C@H](CCCCN)C(N)=O)Cc2ccccc2)NC1=O [Compd 27] (Isovaleryl-ETH[Dip]PCIC[β3hF]K([AEEA-AEEA-Ahx-C18 diacid])[dK]-NH2; disulfide 6-8)
- DC50 [1, 5]: 10 to 100 nM
- IC50 [2, 6]: 10 to 100 nM

SMILES: CC[C@H](C)[C@H](NC(=O)[C@@H]1CSSC[C@H](NC(=O)[C@@H](NC(=O)[C@H](Cc2c[nH]cn2)NC(=O)[C@@H](NC(=O)[C@H](CCC(=O)O)NC(=O)CC(C)C)[C@@H](C)O)C(c2ccccc2)c2ccccc2)C(=O)N1)C(=O)N[C@@H](CCCCNC(=O)COCCOCCNC(=O)COCCOCCNC(=O)CC[C@H](NC(=O)CCCCCCCCCCCCCCCCC(=O)O)C(=O)O)C(=O)N[C@H](CC(=O)N[C@H](CCCCN)C(N)=O)Cc1ccccc1 [Compd 30] (Isovaleryl-ETH[Dip]CCIK([AEEA-AEEA-γGlu-C18 diacid])[β3hF][dK]-NH2; disulfide 5-6)
- DC50 [1, 5]: 10 to 100 nM
- IC50 [2, 6]: 10 to 100 nM

SMILES: CC[C@H](C)[C@@H]1NC(=O)[C@@H](NC(=O)[C@@H]2CCCN2C(=O)[C@@H](NC(=O)[C@H](Cc2c[nH]cn2)NC(=O)[C@@H](NC(=O)[C@H](CCC(=O)O)NC(=O)CC(C)C)[C@@H](C)O)C(c2ccccc2)c2ccccc2)CSSC[C@@H](C(N)=O)NC(=O)C[C@H](Cc2ccccc2)NC(=O)[C@H](CCCCNC(=O)COCCOCCNC(=O)COCCOCCNC(=O)CC[C@H](NC(=O)CCCCCCCCCCCCCCCCC(=O)O)C(=O)O)NC1=O [Compd 32] (Isovaleryl-ETH[Dip]PCIK([AEEA-AEEA-γGlu-C18 diacid])[β3hF]C-NH2; disulfide 6-10)
- DC50 [1, 5]: 10 to 100 nM
- IC50 [2, 6]: 100 to 500 nM

SMILES: CC[C@H](C)[C@@H]1NC(=O)[C@@H](NC(=O)[C@@H]2CCCN2C(=O)[C@@H](NC(=O)[C@H](Cc2c[nH]cn2)NC(=O)[C@@H](NC(=O)[C@H](CCC(=O)O)NC(=O)CC(C)C)[C@@H](C)O)C(c2ccccc2)c2ccccc2)CSSC[C@@H](C(=O)N[C@H](CC(=O)N[C@@H](CCCCNC(=O)COCCOCCNC(=O)COCCOCCNC(=O)CC[C@H](NC(=O)CCCCCCCCCCCCCCCCC(=O)O)C(=O)O)C(=O)N[C@H](CCCCN)C(N)=O)Cc2ccccc2)NC1=O [Compd 36] (Isovaleryl-ETH[Dip]PCIC[β3hF]K([AEEA-AEEA-γGlu-C18 diacid])[dK]-NH2; disulfide 6-8)
- DC50 [1, 5]: 10 to 100 nM
- IC50 [2, 6]: 10 to 100 nM

SMILES: CCCCCCCCCCCCCCCC(=O)NCCCCCC(=O)NCCCC[C@H](NC(=O)[C@@H]1CSSC[C@H](NC(=O)[C@@H]2CCCN2C(=O)[C@@H](NC(=O)[C@H](Cc2c[nH]cn2)NC(=O)[C@@H](NC(=O)[C@H](CCC(=O)O)NC(=O)CC(C)C)[C@@H](C)O)C(c2ccccc2)c2ccccc2)C(=O)N1)C(=O)N[C@H](CC(=O)N[C@H](CCCCN)C(N)=O)Cc1ccccc1 [Compd 39] (Isovaleryl-ETH[Dip]PCCK([Ahx-Palmitoyl])[β3hF][dK]-NH2; disulfide 6-7)
- DC50 [1, 5]: 10 to 100 nM
- IC50 [2, 6]: 1 to 10 nM

SMILES: CCCCCCCCCCCCCCCC(=O)NCCCCCC(=O)NCCCC[C@H](NC(=O)[C@@H]1CSSC[C@H](NC(=O)[C@@H]2CCCN2C(=O)[C@@H](NC(=O)[C@H](Cc2c[nH]cn2)NC(=O)[C@@H](NC(=O)[C@H](CCC(=O)OC)NC(=O)CC(C)C)[C@@H](C)O)C(c2ccccc2)c2ccccc2)C(=O)N1)C(=O)N[C@H](CC(=O)N[C@H](CCCCN)C(N)=O)Cc1ccccc1 [Compd 40] (Isovaleryl-E(OMe)TH[Dip]PCCK([Ahx-Palmitoyl])[β3hF][dK]-NH2; disulfide 6-7)
- DC50 [1, 5]: 10 to 100 nM
- IC50 [2, 6]: 1 to 10 nM

SMILES: COC(=O)CC[C@H](NC(=O)CC(C)C)C(=O)N[C@H](C(=O)N[C@@H](Cc1c[nH]cn1)C(=O)N[C@H](C(=O)N1CCC[C@H]1C(=O)N[C@H]1CSSC[C@@H](C(=O)N[C@@H](CCCCNC(=O)CCCCCNC(=O)C[N+](C)(C)CCNC(=O)CCCCCCCCCCCCCCCCC(=O)O)C(=O)N[C@H](CC(=O)N[C@H](CCCCN)C(N)=O)Cc2ccccc2)NC1=O)C(c1ccccc1)c1ccccc1)[C@@H](C)O [compound 315] (Isovaleryl-E(OMe)TH[Dip]PCCK([Ahx-X1])[β3hF][dK]-NH2; disulfide 6-7)
- IC50 ([2]; T47D internalization assay in presence of mouse serum albumin (MSA), Table 6E): 10 to 100 nM
